Measurements reported in patent publication US10870851B2, “Non-coding RNAs linked to immortality and associated methods and compositions” (The Regents of the University of California, priority 2015, dated 2020).
Entries after “also recorded” stand apart in the source; their conditions may differ.

What was measured:
[1] = test system: MDA-MB453; experiment: 5-AdC treatment of MORT-negative breast tumor line MDA-MB453; format: cell-based, human; details: 1 μM 5-AdC for 96 h
Description: (§1) Finite and immortalized HMEC were generated and grown as previously described^1, 2, 32. […] […]. Retroviral transduction was performed as described^1, 2. Breast tumor lines MDA-MB231, MDA-MB453, and MCF7 were grown as previously described^33, 34.
(§2) Cells were treated with 1 μM 5-aza-2′-deoxycytidine (Sigma) for 96 h, as previously described^33.
(§3) DNA methylation analysis by MassARRAY. DNA methylation analysis by Sequenom MassARRAY (Sequenom) was performed as described^40. Primer sequences are provided in FIG. 18 and are SEQ ID NOs: 3, 4, 5, and 6. Oligonucleotides used for MassARRAY analysis were ordered from Integrated DNA Technologies. Two MassARRAY amplicons covered 800 bp region including the first MORT exon and about 500 bp upstream MORT transcription start (FIG. 4C). The mean DNA methylation of all 26 informative CpG units within MassARRAY amplicons was used for data presentation and statistical analysis.
(§4) The reverse transcription and real-time PCR was performed as previously described in Oshiro M M, Watts G S, Wozniak R J, Junk D J, Munoz-Rodriguez J L, Domann F E, Futscher B W. Mutant p53 and aberrant cytosine methylation cooperate to silence gene expression. Oncogene 2003; 22:3624-34 (reference 1 herein), and Vrba L, Junk D J, Novak P, Futscher B W. p53 induces distinct epigenetic states at its direct target promoters. […]

[2] = test system: 184Dp16sMY HMEC; experiment: 5-AdC treatment of immortalized MORT negative HMEC line 184Dp16sMY; format: cell-based, human; details: 96 h treatment, three concentrations of 5-AdC (FIG. 14)
Description: Finite and immortalized HMEC were generated and grown as previously described^1, 2, 32. […]. Retroviral transduction was performed as described^1, 2. Breast tumor lines MDA-MB231, MDA-MB453, and MCF7 were grown as previously described^33, 34. […]
The reverse transcription and real-time PCR was performed as previously described in Oshiro M M, Watts G S, Wozniak R J, Junk D J, Munoz-Rodriguez J L, Domann F E, Futscher B W. Mutant p53 and aberrant cytosine methylation cooperate to silence gene expression. Oncogene 2003; 22:3624-34 (reference 1 herein), and Vrba L, Junk D J, Novak P, Futscher B W. p53 induces distinct epigenetic states at its direct target promoters. BMC Genomics 2008; 9:486 (reference 41 herein), both incorporated herein by reference. Primers were designed for MORT, GAPDH, MYC and XIST and used with the Human Universal Probe Library Set (Roche Diagnostics). The cycle threshold (Ct) MORT values were normalized between the samples using GAPDH Ct values. The data were then converted into a value that is in log 2 scale, but increases with the expression level using formula 40-Ct. Since 40 was the total number of PCR cycles it was the lowest detectable expression level and therefore it was considered the background and set as 0 to display the data in the plots. […]

[3] = test system: MDA-MB231; experiment: 5-AdC treatment of MORT-negative breast tumor line MDA-MB231; format: cell-based, human; details: 1 μM 5-AdC for 96 h
Description: as §1, §2, §3, §4

[4] = test system: MCF7; experiment: 5-AdC treatment of MORT-negative breast tumor line MCF7; format: cell-based, human; details: 1 μM 5-AdC for 96 h
Description: as §1, §2, §3, §4

[5] = MORT transcript half-life using actinomycin D treatment; format: cell-based; details: actinomycin D 1 μg/ml; c-MYC and GAPDH as reference genes
Description: FIG. 7 is a graph showing determination of MORT transcript half-life using actinomycin D (1 μg/ml) treatment. c-MYC was used as a short half-life reference gene and GAPDH was used as a long half-life reference gene. (Yang et al. 2003). […] The error bars show the SEM of 3 independent experiments.
The reverse transcription and real-time PCR was performed as previously described in Oshiro M M, Watts G S, Wozniak R J, Junk D J, Munoz-Rodriguez J L, Domann F E, Futscher B W. Mutant p53 and aberrant cytosine methylation cooperate to silence gene expression. Oncogene 2003; 22:3624-34 (reference 1 herein), and Vrba L, Junk D J, Novak P, Futscher B W. p53 induces distinct epigenetic states at its direct target promoters. BMC Genomics 2008; 9:486 (reference 41 herein), both incorporated herein by reference. Primers were designed for MORT, GAPDH, MYC and XIST and used with the Human Universal Probe Library Set (Roche Diagnostics). The cycle threshold (Ct) MORT values were normalized between the samples using GAPDH Ct values. The data were then converted into a value that is in log 2 scale, but increases with the expression level using formula 40-Ct. Since 40 was the total number of PCR cycles it was the lowest detectable expression level and therefore it was considered the background and set as 0 to display the data in the plots.

[6] = test system: Immortal, MORT(−) 184Dp16sMY HMEC; experiment: Reversal of immortalization: lentiviral restoration of MORT expression in immortal HMEC; format: cell-based, human; details: qRT/PCR during MORT-mediated senescence
Description: Clontech's Tet-On® 3G system was used to construct lentiviral vectors that express 1) the MORT lncRNA sequence (MORT-Exact)(SEQ ID NO:8) and 2) an aberrant MORT lncRNA to which 60 nucleotides were added at the 5′ end of MORT that was predicted to disrupt RNA secondary structure rendering MORT either hypomorphic or completely nonfunctional (MORT-null). […] Immortal, MORT(−) 184Dp16sMY HMEC were either untreated or transduced with a lentivirus that expressed MORT-Exact, MORT-Null, or eGFP. Cells transduced with MORT-Exact cease growth and take on senescent phenotypes (FIG. 19A-19B).

Molecule | level of DNA methylation of the MORT promoter ([1]; Sequenom MassARRAY) | MORT expression (transcript level) ([1]; real-time PCR) | MORT transcription (transcript level) [2] | level of DNA methylation of the MORT promoter ([3]; Sequenom MassARRAY) | MORT expression (transcript level) ([3]; real-time PCR) | level of DNA methylation of the MORT promoter ([4]; Sequenom MassARRAY) | MORT expression (transcript level) ([4]; real-time PCR) | MORT transcript half-life [5] [h] | induced overexpression of p16 or p14 [6] | induction of p53 and p53 target genes MDM2, p21, PIG3, MASPIN [6]
Nc1ncn([C@H]2C[C@H](O)[C@@H](CO)O2)c(=O)n1 [5-AdC, 5-aza-2′-deoxycytidine] | significant decrease | reactivation of MORT expression | reactivation of MORT transcription; also recorded: increased MORT level | significant decrease | reactivation of MORT expression | significant decrease | reactivation of MORT expression |  |  | 
MORT: long non-coding RNA (lincRNA), 1.53 kb, ribonucleotide sequence SEQ ID NO:7 |  |  |  |  |  |  |  | ~15 | not due to induced overexpression of p16 or p14 | neither p53 nor well-defined p53 target genes, MDM2, p21, PIG3, and MASPIN were induced
